Measurements taken from patent publication US9850272B2, “Therapeutically active estratrienthiazole derivatives as inhibitors of 17.beta-hydroxy-steroid dehydrogenase, type 1” (FORENDO PHARMA LTD, priority 2013, dated 2017).
Where a name gives a salt, the structure may show the parent alone. Read-outs that look alike come from different tables or passages of the source.

Tests used:
[1] = target: T1, Recombinant Human 17β-HSD1 (Homo sapiens, UniProt P14061); test: Inhibition of recombinant human 17β-HSD1 (conversion of 3H-estrone to estradiol, HPLC); format: biochemical; details: read-out: 17β-HDS1 Inhibition % at 1 μM
T1 construct: made in house; host or cells: Sd9 (Sf9) insect cells, baculovirus (Bac to Bac Expression System)
T1 sequence (P14061 1-328): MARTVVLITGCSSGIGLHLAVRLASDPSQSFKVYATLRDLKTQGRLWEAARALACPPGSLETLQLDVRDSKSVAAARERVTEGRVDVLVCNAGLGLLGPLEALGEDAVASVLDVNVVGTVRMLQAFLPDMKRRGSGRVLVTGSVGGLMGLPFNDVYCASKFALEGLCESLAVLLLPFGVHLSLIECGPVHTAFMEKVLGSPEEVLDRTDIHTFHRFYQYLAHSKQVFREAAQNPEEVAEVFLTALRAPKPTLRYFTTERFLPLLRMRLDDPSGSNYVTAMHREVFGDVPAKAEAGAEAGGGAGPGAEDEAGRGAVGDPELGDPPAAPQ
Experimental: 17β-HSD1 Production and Isolation:
Recombinant baculovirus was generated by the “Bac to Bac Expression System” (Invitrogen). Recombinant bacmid was transfected to Sd9 insect cells using “Cellfectin Reagent” (Invitrogen). 60 h later cells were harvested; the microsomal fraction was isolated as described by Puranen, T. J., Poutanen, M. H., Peltoketo, H. E., Vihko, P. T. and Vihko, R. K. (1994) Site-directed mutagenesis of the putative active site of human 17 β-hydroxysteroid dehydrogenase type 1. Biochem. J. 304: 289-293. Aliquots were stored frozen until determination of enzymatic activity.
Assay—Inhibition of Recombinant Human 17β-HSD1:
Recombinant protein (1 μg/ml) was incubated in 20 mM KH2PO4 pH 7.4 with 30 nM estrone (including 800.000 cpm/ml of ^3H-estrone) and 1 mM NADPH for 30 min at RT, in the presence of the potential inhibitor at concentrations 1 μM or 0.1 μM. Inhibitor stock solutions were prepared in DMSO. Final concentration of DMSO was adjusted to 1% in all samples. The enzyme reaction was stopped by addition of 10% trichloroacetic acid (final concentration). Samples were centrifuged in a microtiter plate at 4000 rpm for 10 min. Supernatants were applied to reverse phase HPLC on a Waters Symmetry C18 column, equipped with a Waters Sentry Guard column. Isocratic HPLC runs were performed at RT at a flow rate of 1 ml/min in acetonitrile:water 48:52 as running solvent. Radioactivity was monitored in the eluate by a Packard Flow Scintillation Analyzer. Total radioactivity for estrone and estradiol were determined in each sample and percent conversion of estrone to estradiol was calculated according to the following formula:
(§1) Percent inhibition was calculated flowingly: % inhibition=100−% conversion

[2] = target: T2, Recombinant Human 17β-HSD2 (Homo sapiens, UniProt P37059); test: Inhibition of recombinant human 17β-HSD2 (conversion of 3H-estradiol to estrone, HPLC); format: biochemical; details: read-out: 17β-HSD2 Inhibition % at 1 μM
T2 construct: made in house; host or cells: Sd9 (Sf9) insect cells, baculovirus (Bac to Bac Expression System)
T2 sequence (P37059 1-387): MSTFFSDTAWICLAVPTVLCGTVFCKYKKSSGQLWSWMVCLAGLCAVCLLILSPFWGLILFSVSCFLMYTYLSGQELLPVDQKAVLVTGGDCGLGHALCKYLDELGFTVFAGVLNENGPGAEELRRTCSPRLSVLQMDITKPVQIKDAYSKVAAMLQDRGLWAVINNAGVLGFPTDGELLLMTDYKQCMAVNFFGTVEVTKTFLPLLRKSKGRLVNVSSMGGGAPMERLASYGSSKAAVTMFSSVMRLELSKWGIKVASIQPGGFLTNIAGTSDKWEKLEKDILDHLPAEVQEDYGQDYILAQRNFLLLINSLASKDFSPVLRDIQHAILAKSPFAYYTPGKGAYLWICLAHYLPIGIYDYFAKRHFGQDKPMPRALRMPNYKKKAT
Experimental: 17β-HSD2 Production and Isolation:
Similarly to 17β-HSD1 the Recombinant baculovirus was generated by the “Bac to Bac Expression System” (Invitrogen). Recombinant bacmid was transfected to Sd9 insect cells using “Cellfectin Reagent” (Invitrogen). 60 h later cells were harvested and supernatant were fractionated by the following protocol: • cells were dissolved into 40 ml of A-buffer (40 mM TRIS, pH8.0, 20% glycerol, 20 μM NAD, 0.4 mM PMSF, 150 mM NaCl, 0.5% dodecyl-β-maltoside+protease inhibitor cocktail) • cells were sonicated • lysate was incubated on ice for 15 min • lysate was centrifuged 5000 rpm 15 min, +4° C. • centrifugation of the supernatant 180.000 g 30 min, +4° C. • pellet was dissolved into 8 ml of A-buffer • not resuspended material was removed by centrifugation 5000 rpm 15 min, +4° C. • the clear supernatant was divided into 100 μl aliquots and were stored frozen until determination of enzymatic activity.
The amount of 17β-HSD2 was analysed by immunoblotting and total protein concentration of each extract batch was determined.
Assay—Inhibition of Recombinant Human 17β-HSD2:
Recombinant protein (4 μg/ml) was incubated in 20 mM KH2PO4 pH 8.5 with 50 nM estradiol (including 800.000 cpm/ml of ^3H-estradiol) and 1 mM NADH for 30 min at RT, in the presence of the potential inhibitor at concentrations 1 μM or 0.1 μM. Inhibitor stock solutions were prepared in DMSO. Final concentration of DMSO was adjusted to 1% in all samples. The enzyme reaction was stopped by addition of 10% trichloroacetic acid (final concentration). Samples were centrifuged in a microtiter plate at 4000 rpm for 10 min. Supernatants were applied to reverse phase HPLC on a Waters Symmetry C18 column, equipped with a Waters Sentry Guard column. Isocratic HPLC runs were performed at RT at a flow rate of 1 ml/min in acetonitrile:water 48:52 as running solvent. Radioactivity was monitored in the eluate by a Packard Flow Scintillation Analyzer. Total radioactivity for estrone and estradiol were determined in each sample and percent conversion of estradiol to estrone was calculated according to the following formula:
as §1

[3] = inhibitor at 1 μM, 30 nM estrone, 1 mM NADPH, 30 min at RT
[4] = inhibitor at 1 μM, 50 nM estradiol, 1 mM NADH, 30 min at RT

SMILES | inhibition at 1 µM [1, 3] [%] | inhibition at 1 µM [2, 4] [%] | inhibition at 1 µM [1] [%] | inhibition at 1 µM [2] [%]
Cc1cnc(NC(=O)CC[C@@H]2C[C@H](O)[C@@]3(C)CCC4c5ccc(O)cc5CCC4C23)s1 (stereo partly drawn) [Compound 1, 3-((13S,15R,17S)-3,17-Dihydroxy-13-methyl-7,8,9,11,12,13,14,15,16,17decahydro-6H-cyclopenta[a]phenanthren-15-yl)-N-(5-methylthiazol-2-yl)propanamide] | 98 | 48 | – | –
COc1ccc2c(c1)CCC1C2CC[C@@]2(C)C1[C@H](CCC(=O)Nc1ncc(C)s1)C[C@@H]2O (stereo partly drawn) [Compound 6, 3-((13S,15R,17S)-17-Hydroxy-3-methoxy-13-methyl-7,8,9,11,12,13,14,15,16,17-decahydro-6H-cyclopenta[a]phenanthren-15-yl)-N-(5-methylthiazol-2-yl)propanamide] | 58 | 3 | – | –
Cc1cnc(NC(=O)CC[C@@H]2C[C@@](O)(C#N)[C@@]3(C)CCC4c5ccc(O)cc5CCC4C23)s1 (stereo partly drawn) [Compound 21, 3-((13S,15R,17S)-17-cyano-3,17-dihydroxy-13-methyl-7,8,9,11,12,13,14,15,16,17-decahydro-6H-cyclopenta[a]phenanthren-15-yl)-N-(5-methylthiazol-2-yl)propanamide] | 76 | 6 | – | –
CC(=O)Oc1ccc2c(c1)CCC1C2CC[C@@]2(C)C1[C@H](CCC(=O)Nc1ncc(C)s1)C[C@@]2(O)C#N (stereo partly drawn) [Compound 22, (13S,15R,17S)-17-cyano-17-hydroxy-13-methyl-15-(3-((5-methylthiazol-2-yl)amino)-3-oxopropyl)-7,8,9,11,12,13,14,15,16,17-decahydro-6H-cyclopenta[a]phenanthren-3-yl acetate] | 71 | 1 | – | –
COc1ccc2c(c1)CCC1C2CC[C@@]2(C)C1[C@H](CCC(=O)Nc1ncc(C)s1)C[C@@]2(O)C#N (stereo partly drawn) [Compound 23, 3-((13S,15R,17S)-17-cyano-17-hydroxy-3-methoxy-13-methyl-7,8,9,11,12,13,14,15,16,17-decahydro-6H-cyclopenta[a]phenanthren-15-yl)-N-(5-methylthiazol-2-yl)propanamide] | 82 | 3 | – | –
Cc1cnc(NC(=O)CC[C@@H]2C[C@@](O)(CC#N)[C@@]3(C)CCC4c5ccc(O)cc5CCC4C23)s1 (stereo partly drawn) [Compound 24, 3-((13S,15R,17R)-17-(cyanomethyl)-3,17-dihydroxy-13-methyl-7,8,9,11,12,13,14,15,16,17-decahydro-6H-cyclopenta[a]phenanthren-15-yl)-N-(5-methylthiazol-2-yl)propanamide] | 51 | 4 | – | –
Cc1cnc(NC(=O)CC[C@@H]2C[C@H](O)[C@@]3(C)CCC4c5cc(Br)c(O)c(Br)c5CCC4C23)s1 (stereo partly drawn) [Compound 28, 3-((13S,15R,17S)-2,4-dibromo-3,17-dihydroxy-13-methyl-7,8,9,11,12,13,14,15,16,17-decahydro-6H-cyclopenta[a]phenanthren-15-yl)-N-(5-methylthiazol-2-yl)propanamide] | 91 | 15 | – | –
CO[C@H]1C[C@@H](CCC(=O)Nc2ncc(C)s2)C2C3CCc4c(cc(Br)c(O)c4Br)C3CC[C@@]21C (stereo partly drawn) [Compound 29, 3-((13S,15R,17S)-2,4-dibromo-3-hydroxy-17-methoxy-13-methyl-7,8,9,11,12,13,14,15,16,17-decahydro-6H-cyclopenta[a]phenanthren-15-yl)-N-(5-methylthiazol-2-yl)propanamide] | 67 | 3 | – | –
Cc1cnc(NC(=O)CC[C@@H]2C[C@@](O)(CC#N)[C@@]3(C)CCC4c5cc(Br)c(O)c(Br)c5CCC4C23)s1 (stereo partly drawn) [Compound 30, 3-((13S,15R,17R)-2,4-dibromo-17-(cyanomethyl)-3,17-dihydroxy-13-methyl-7,8,9,11,12,13,14,15,16,17-decahydro-6H-cyclopenta[a]phenanthren-15-yl)-N-(5-methylthiazol-2-yl)propanamide] | 52 | 7 | – | –
CC(=O)O[C@H]1C[C@@H](CCC(=O)Nc2ncc(C)s2)C2C3CCc4cc(O)ccc4C3CC[C@@]21C (stereo partly drawn) [Compound 36] | 64 | 3 | – | –
Cc1cnc(NC(=O)CC[C@@H]2C[C@H](OC(=O)CCC(=O)O)[C@@]3(C)CCC4c5ccc(O)cc5CCC4C23)s1 (stereo partly drawn) [Compound 43, Succinic acid mono-{(13S,15R,17S)-3-hydroxy-13-methyl-15-[2-(5-methylthiazol-2-ylcarbamoyl)-ethyl]-17-oxo-7,8,9,11,12,13,14,15,16,17-decahydro-6H-cyclopenta[a]phenanthren-17-yl}ester] | 97 | 1 | – | –
Cc1cnc(NC(=O)CC[C@@H]2C[C@H](OC(=O)CCC(=O)O)[C@@]3(C)CCC4c5ccc(O)cc5CCC4C23)s1 (stereo partly drawn) [Compound 44, sodium salt] | – | – | 94 | 2
COc1ccc2c(c1)CCC1C2CC[C@@]2(C)C1[C@H](CCC(=O)Nc1ncc(C)s1)C[C@@H]2OP(=O)(O)O (stereo partly drawn) [Compound 46, Phosphoric acid mono-{(13S,15R,17S)-3-methoxy-13-methyl-15-[2-(5-methylthiazol-2-ylcarbamoyl)-ethyl]-17-oxo-7,8,9,11,12,13,14,15,16,17-decahydro-6H-cyclopenta[a]phenanthren-17-yl}ester] | 84 | 1 | – | –
Cc1cnc(NC(=O)CC[C@@H]2C[C@H](OP(=O)(O)O)[C@@]3(C)CCC4c5ccc(O)cc5CCC4C23)s1 (stereo partly drawn) [Compound 60] | 74 | 0 | – | –
Cc1cnc(NC(=O)CC[C@@H]2CC(O)[C@@]3(C)CCC4c5ccccc5CCC4C23)s1 (stereo partly drawn) [Compound 67, 3-((13S,15R)-17-Hydroxy13-methyl-7,8,9,11,12,13,14,15,16,17-decahydro-6H-cyclopenta[a]phenanthren-15-yl)-N-(5-methylthiazol-2-yl)propanamide] | 74 | 30 | – | –
